Data set [1] deals with rat EP4 receptor (Rattus norvegicus (Rat), UniProt P43114). Description: EP4 antagonistic activity measurement using prostanoid receptor subtype expressing cells (cAMP). In kind it is cell-based. The note with it: CHO cells expressing rat EP4 receptor; inhibition of cAMP production by PGE2 10 nM. On the procedure: CHO cells expressing rat EP4 receptor subtypes were prepared according to the methods of Nishigaki et al. (FEBS Letters, Vol. 364, p. 339-341, 1995), and used for experiment. Cultured subconfluent cells were detached, and suspended in an assay medium (MEM containing 1 mmol/L IBMX, 1% HSA) in a concentration of 1×10^6 cells/mL. For reaction, PGE2 was added to the cell suspension (25 μL) in a final concentration of 10 nmol/L, either alone or as a 25-μL PGE2 solution containing the test compound. After 30 minutes of reaction at room temperature, the amount of cAMP in the cells was quantified according to the method in the descriptions of the cAMP assay kit (CISBIO).
Sequence of rat EP4 receptor (P43114 whole entry): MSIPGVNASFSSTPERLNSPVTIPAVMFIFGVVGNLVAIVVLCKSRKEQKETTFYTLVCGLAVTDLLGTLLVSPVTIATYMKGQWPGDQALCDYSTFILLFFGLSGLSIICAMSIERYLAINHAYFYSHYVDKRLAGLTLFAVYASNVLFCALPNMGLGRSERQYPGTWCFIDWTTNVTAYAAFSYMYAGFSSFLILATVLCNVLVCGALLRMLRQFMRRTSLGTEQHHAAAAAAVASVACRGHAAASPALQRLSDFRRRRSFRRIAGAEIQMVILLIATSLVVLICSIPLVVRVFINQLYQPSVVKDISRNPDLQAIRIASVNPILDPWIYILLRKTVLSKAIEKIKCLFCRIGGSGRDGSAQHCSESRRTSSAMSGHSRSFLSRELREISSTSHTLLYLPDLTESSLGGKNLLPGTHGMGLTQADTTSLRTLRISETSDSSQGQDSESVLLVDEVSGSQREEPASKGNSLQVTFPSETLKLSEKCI
The antagonistic effect (IC50 value) of the test compound was calculated as a value that represents an inhibition rate against a reaction with PGE2 alone at 10 nM, a concentration that produces a submaximal cAMP producing effect.
(In general: Changes in cAMP serve as a functional read-out for many G protein-coupled receptors.)

The subject of data set [2] is mouse colorectal cancer cell line CT26. Kind of data set: Anti-tumor effect in allograft model of mouse colorectal cancer cell line CT26. In kind it is in vivo. To be noted: 10 mg/kg orally, twice a day, Balb/C mouse, 21 days from transplant. The protocol:
The anti-tumor effect of the present compound was evaluated in an allograft model of the mouse colorectal cancer cell line CT26. CT26 was cultured in a CO2 incubator, using an RPMI-1640 medium containing 10 vol % inactivated fetal bovine serum (FBS), 100 units/mL of penicillin, and 100 µg/mL of streptomycin. On the day of transplant, CT26 was harvested after removing the culture supernatant, and washing the cells with phosphate buffer (hereinafter, “PBS”). The harvested CT26 cells were suspended in Hank's buffer to obtain transplant cells. The transplant cells (3×10^5) were then subcutaneously transplanted to the right back of a female Balb/C mouse (Charles River Laboratories Japan Inc.) under anesthesia. The present compound was orally administered in a dose of 10 mg/kg, once on the day of transplant, and twice a day from the next day. For the control group, distilled water was administered for the same duration as in the present compound-administered group. The tumor volume (mm^3) was determined by calculating a relative tumor volume from the measured tumor lengths along the minor axis and major axis using a digital caliper, according to the following formulae 1 and 2. Tumor volume=[(minor axis)^2×major axis]/2 Relative tumor volume=medium value of tumor volumes of each group after 21 days from transplant/medium value of tumor volume of control group after 21 days from transplant

The nature of data set [3]: Pharmacokinetics test (hepatic microsome stability test). To be noted: human hepatic microsome 1 mg/mL, 37° C., 60 min, 1 μmol/L.

Broadly, the IC50 is the concentration that gives 50% inhibition. A low value points to greater potency in that assay.

As to `CC(C)NC(=O)c1ccc2c(c1)[C@]1(CCO2)C[C@H]1C(=O)Nc1cc(C#N)ccc1CCCC(=O)O` [Example 2-13, 4-[4-Cyano-2-({[(2′R,4S)-6-(isopropylcarbamoyl)-2,3-dihydrospiro[chromene-4,1′-cyclopropan]-2′-yl]carbonyl}amino)phenyl]butanoic acid], the IC50 in data set [1] worked out at 7.8 nM. Besides, the “tumor growth inhibitory effect (relative tumor volume, FIG. 1)” value in data set [2] is on record as “tumor growth inhibitory effect”. Also, in data set [3], the “Remaining rate (%)” value came out at 100%.

Regarding `CCCNC(=O)c1ccc2c(c1)[C@]1(CCO2)C[C@H]1C(=O)Nc1cc(C#N)ccc1CCCC(=O)O` [Example 2-44, 4-[4-Cyano-2-({[(2′R,4S)-6-(propylcarbamoyl)-2,3-dihydrospiro[chromene-4,1′-cyclopropan]-2′-yl]carbonyl}amino)phenyl]butanoic acid], the IC50 in data set [1] was determined as 2.5 nM. The “Remaining rate (%)” value in data set [3] amounted to 100%.

`Cn1ccc(NC(=O)c2ccc3c(c2)[C@]2(CCO3)C[C@H]2C(=O)Nc2cc(C#N)ccc2CCCC(=O)O)n1` [Example 2-9, 4-{4-Cyano-2-[({(2′R,4S)-6-[(1-methyl-1H-pyrazol-yl)carbamoyl]-2,3-dihydrospiro[chromene-4,1′-cyclopropan]-2′-yl}carbonyl)amino]phenyl}butanoic acid] yielded a half-inhibitory concentration (IC50) in data set [1] of 4.5 nM. The “Remaining rate (%)” value in data set [3] is on record as 92%.

Consider `CNC(=O)c1ccc2c(c1)[C@@]1(C[C@H]1C(=O)Nc1cc(C#N)ccc1CCCC(=O)O)CC2(C)C` [Example 38-2, 4-[4-Cyano-2-({[(1S,2R)-3′,3′-dimethyl-6′-(methylcarbamoyl)-2′,3′-dihydrospiro[cyclopropane-1, 1′-inden]-2-yl]carbonyl}amino)phenyl]butanoic acid], for which inhibition in data set [1] was half-maximal at 4.3 nM (IC50). Moreover, the “Remaining rate (%)” value in data set [3] was found to be 89%.

Take `COc1ccc(-c2ccc3c(c2)[C@]2(CCO3)C[C@H]2C(=O)Nc2cc(C#N)ccc2CCCC(=O)O)cn1` [Example 7-13, 4-[4-Cyano-2-({[(2′R,4S)-6-(6-methoxy-3-pyridinyl)-2,3-dihydrospiro[chromene-4, 1′-cyclopropan]-2′-yl]carbonyl}amino)phenyl]butanoic acid]: it took 3.5 nM to reach half-maximal inhibition in data set [1] (IC50). For the same molecule, the “Remaining rate (%)” value in data set [3] came out at 95%.

In data set [1], `N#Cc1ccc(CCCC(=O)O)c(NC(=O)[C@@H]2C[C@]23CCOc2ccc(C(=O)NCC(F)F)cc23)c1` [Example 2-32, 4-{4-Cyano-2-[({(2′R,4S)-6-[(2,2-difluoroethyl)carbamoyl]-2,3-dihydrospiro[chromene-4,1′-cyclopropan]-2′-yl}carbonyl)amino]phenyl}butanoic acid] returned a half-maximal inhibitory concentration (IC50) of 3.7 nM. The “Remaining rate (%)” value in data set [3] was 85%.

For the molecule `COCCNC(=O)c1cc2c(cc1OC)OCC[C@]21C[C@H]1C(=O)Nc1cc(C#N)ccc1CCCC(=O)O` [Example 33-2, 4-{4-Cyano-2-[({(2′R,4S)-7-methoxy-6-[(2-methoxyethyl)carbamoyl]-2,3-dihydrospiro[chromene-4,1′-cyclopropan]-2′-yl}carbonyl)amino]phenyl}butanoic acid], 8.4 nM corresponded to half-maximal inhibition in data set [1] (IC50). Also, the “Remaining rate (%)” value in data set [3] came to 100%.

Consider `COCCNC(=O)c1ccc2c(c1)[C@]1(CCO2)C[C@H]1C(=O)Nc1cc(C#N)ccc1CCCC(=O)O` [Example 2-2, 4-{4-Cyano-2-[({(2′R,4S)-6-[(2-methoxyethyl)carbamoyl]-2,3-dihydrospiro[chromene-4,1′-cyclopropan]-2′-yl}carbonyl)amino]phenyl}butanoic acid], for which, in data set [1], the IC50 is 5.3 nM. In addition, the “tumor growth inhibitory effect (relative tumor volume, FIG. 1)” value in data set [2] is “tumor growth inhibitory effect”. Moreover, in data set [3], the “Remaining rate (%)” value is recorded as 97%.

`CNC(=O)c1ccc2c(c1)[C@]1(CCO2)C[C@H]1C(=O)Nc1cc(C#N)ccc1CCCC(=O)O` [Example 1, 4-[4-Cyano-2-({[(2′R,4S)-6-(methylcarbamoyl)-2,3-dihydrospiro[chromene-4,1′-cyclopropan]-2′-yl]carbonyl}amino)phenyl]butanoic acid]: the IC50 in data set [1] turned out to be 2.5 nM. In addition, the “Remaining rate (%)” value in data set [3] was 94%.

For the origin of these results see patent publication US10077247B2, “Tricyclic spiro compound” (ONO PHARMACEUTICAL CO., LTD., priority 2015, dated 2018).
